Measurements taken from US11136313B2, “Compounds, compositions, and methods for modulating CFTR” (Proteostasis Therapeutics, Inc., priority 2015, dated 2021).

Molecular target: T1, ΔF508-CFTR (Homo sapiens, UniProt P13569, DEL508-508)
T1 construct: Primary lung epithelial cells homozygous for the Cystic Fibrosis-causing ΔF508 mutation were differentiated for a minimum of 4 weeks; endogenous in cells; host or cells: primary lung epithelial cells (hBE) homozygous for ΔF508, differentiated at an air-liquid interface
Assay: hBE equivalent current (Ieq) assay: AUC of equivalent chloride current after forskolin/VX-770 in primary lung epithelial cells homozygous for ΔF508
Format: cell-based
Details: relative to CFTR amplifier (Compound A)+VX-809 (3 uM), compound at 10 uM and Compound A at 3 uM, 24 h treatment
In short: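 ΔF508/ΔF508 primary human bronchial epithelia, differentiated ≥4 weeks at air-liquid interface, treated basolaterally with compound for 24 h at 37 °C. Transepithelial voltage and conductance by 24-channel current clamp at 36 °C: benzamil, then forskolin plus VX-770 for 27 min, then bumetanide; AUC of equivalent chloride current over vehicle.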

T1 sequence (P13569 with tags, fused parts or gaps DEL508-508): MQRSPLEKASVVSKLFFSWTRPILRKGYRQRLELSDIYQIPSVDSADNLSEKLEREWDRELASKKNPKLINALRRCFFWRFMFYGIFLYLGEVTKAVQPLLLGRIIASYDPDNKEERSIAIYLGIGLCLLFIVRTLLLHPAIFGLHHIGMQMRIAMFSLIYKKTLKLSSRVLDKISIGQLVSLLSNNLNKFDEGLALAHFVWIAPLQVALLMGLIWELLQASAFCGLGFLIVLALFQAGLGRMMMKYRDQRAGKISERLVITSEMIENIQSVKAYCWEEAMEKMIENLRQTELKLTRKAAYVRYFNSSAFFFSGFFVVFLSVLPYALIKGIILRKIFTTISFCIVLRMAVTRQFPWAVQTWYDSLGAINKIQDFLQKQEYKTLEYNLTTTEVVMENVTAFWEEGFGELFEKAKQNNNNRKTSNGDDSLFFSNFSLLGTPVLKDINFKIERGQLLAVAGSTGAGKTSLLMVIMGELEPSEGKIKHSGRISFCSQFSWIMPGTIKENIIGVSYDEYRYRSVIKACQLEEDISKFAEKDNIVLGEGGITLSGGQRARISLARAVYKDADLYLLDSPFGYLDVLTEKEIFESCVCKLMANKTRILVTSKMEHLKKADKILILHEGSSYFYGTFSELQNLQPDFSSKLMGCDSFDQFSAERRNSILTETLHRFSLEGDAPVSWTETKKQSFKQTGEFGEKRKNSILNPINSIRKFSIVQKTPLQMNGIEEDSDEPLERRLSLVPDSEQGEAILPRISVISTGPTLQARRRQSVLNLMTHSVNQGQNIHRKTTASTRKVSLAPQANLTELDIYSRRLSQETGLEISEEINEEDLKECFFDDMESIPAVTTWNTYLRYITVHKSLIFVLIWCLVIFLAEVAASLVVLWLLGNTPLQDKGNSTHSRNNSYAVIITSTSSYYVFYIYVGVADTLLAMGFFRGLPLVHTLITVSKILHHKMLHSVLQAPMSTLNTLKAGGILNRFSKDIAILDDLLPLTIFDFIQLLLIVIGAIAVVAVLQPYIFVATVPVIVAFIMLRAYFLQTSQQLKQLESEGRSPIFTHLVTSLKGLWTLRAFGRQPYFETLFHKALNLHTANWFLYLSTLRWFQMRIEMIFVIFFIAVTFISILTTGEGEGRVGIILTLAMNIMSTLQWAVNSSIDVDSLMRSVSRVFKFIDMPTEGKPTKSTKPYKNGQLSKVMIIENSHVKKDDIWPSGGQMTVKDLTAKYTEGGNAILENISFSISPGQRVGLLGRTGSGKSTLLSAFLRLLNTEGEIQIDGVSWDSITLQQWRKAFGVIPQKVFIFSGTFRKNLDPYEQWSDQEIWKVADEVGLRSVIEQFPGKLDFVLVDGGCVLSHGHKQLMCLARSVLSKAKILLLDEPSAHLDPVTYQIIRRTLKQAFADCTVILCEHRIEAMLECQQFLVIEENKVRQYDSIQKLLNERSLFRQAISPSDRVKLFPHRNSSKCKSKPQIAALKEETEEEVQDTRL

Q: For `Cc1c(-c2cc(C(=O)[O-])c3c(OCc4ccccc4F)ccc(C)c3n2)sc2ccccc12.[Na+]` [Compound 289, Sodium 5-[(2-Fluorophenyl)methoxy]-8-methyl-2-(3-methyl-1-benzothiophen-2-yl)quinoline-4-carboxylate], which Activity is on record?
A: ++ (activity>50% of CFTR amplifier+VX-809 (3 uM) with compound at 10 uM and Compound A at 3 uM)

Q: For `Cc1c(-c2cc(C(=O)[O-])c3c(OCc4cccc(F)c4)ccc(C)c3n2)sc2ccccc12.[Na+]` [Compound 290, Sodium 5-[(3-Fluorophenyl)methoxy]-8-methyl-2-(3-methyl-1-benzothiophen-2-yl)quinoline-4-carboxylate], which Activity is on record?
A: ++ (activity>50% of CFTR amplifier+VX-809 (3 uM) with compound at 10 uM and Compound A at 3 uM)

Q: How did the Activity turn out when `Cc1c(-c2cc(C(=O)[O-])c3c(OCc4ccc(F)cc4)ccc(C)c3n2)sc2ccccc12.[Na+]` [Compound 291, Sodium 5-[(4-Fluorophenyl)methoxy]-8-methyl-2-(3-methyl-1-benzothiophen-2-yl)quinoline-4-carboxylate] was run?
A: ++ (activity>50% of CFTR amplifier+VX-809 (3 uM) with compound at 10 uM and Compound A at 3 uM)

Q: With `COc1ccccc1COc1ccc(C)c2nc(-c3sc4ccccc4c3C)cc(C(=O)[O-])c12.[Na+]` [Compound 292, Sodium 5-[(2-Methoxyphenyl)methoxy]-8-methyl-2-(3-methyl-1-benzothiophen-2-yl)quinoline-4-carboxylate] as the molecule, how does the Activity read?
A: ++ (activity>50% of CFTR amplifier+VX-809 (3 uM) with compound at 10 uM and Compound A at 3 uM)

Q: Which Activity does the source give for `COc1cccc(COc2ccc(C)c3nc(-c4sc5ccccc5c4C)cc(C(=O)[O-])c23)c1.[Na+]` [Compound 293, Sodium 5-[(3-Methoxyphenyl)methoxy]-8-methyl-2-(3-methyl-1-benzothiophen-2-yl)quinoline-4-carboxylate] here?
A: ++ (activity>50% of CFTR amplifier+VX-809 (3 uM) with compound at 10 uM and Compound A at 3 uM)

Q: How did the Activity turn out when `Cc1c(-c2cc(C(=O)[O-])c3c(OCc4c(F)cccc4F)ccc(C)c3n2)sc2ccccc12.[Na+]` [Compound 294, Sodium 5-[(2,6-Difluorophenyl)methoxy]-8-methyl-2-(3-methyl-1-benzothiophen-2-yl)quinoline-4-carboxylate] was run?
A: ++ (activity>50% of CFTR amplifier+VX-809 (3 uM) with compound at 10 uM and Compound A at 3 uM)

Q: `Cc1c(-c2cc(C(=O)[O-])c3c(OCc4ccc5c(c4)OCO5)ccc(C)c3n2)sc2ccccc12.[Na+]` [Compound 295, Sodium 5-(2H-1,3-Benzodioxol-5-ylmethoxy)-8-methyl-2-(3-methyl-1-benzothiophen-2-yl)quinoline-4-carboxylate] was tested. Which Activity did it give?
A: ++ (activity>50% of CFTR amplifier+VX-809 (3 uM) with compound at 10 uM and Compound A at 3 uM)

Q: Which Activity does the source give for `Cc1c(-c2cc(C(=O)[O-])c3c(OCc4cccc5c4OCO5)ccc(C)c3n2)sc2ccccc12.[Na+]` [Compound 296] here?
A: ++ (activity>50% of CFTR amplifier+VX-809 (3 uM) with compound at 10 uM and Compound A at 3 uM)

Q: For `Cc1c(-c2cc(C(=O)[O-])c3c(OCc4cccc(C#N)c4)ccc(C)c3n2)sc2ccccc12.[Na+]` [Compound 298, Sodium 5-[(3-Cyanophenyl)methoxy]-8-methyl-2-(3-methyl-1-benzothiophen-2-yl)quinoline-4-carboxylate], which Activity is on record?
A: ++ (activity>50% of CFTR amplifier+VX-809 (3 uM) with compound at 10 uM and Compound A at 3 uM)

Q: For `Cc1c(-c2cc(C(=O)[O-])c3c(O[C@H]4CCC[C@@H](c5ccccc5)C4)ccc(C)c3n2)oc2ccccc12.[Na+]` [Compound 299], which Activity is on record?
A: ++ (activity>50% of CFTR amplifier+VX-809 (3 uM) with compound at 10 uM and Compound A at 3 uM)

Q: With `Cc1c(-c2cc(C(=O)[O-])c3c(O[C@@H]4CCC[C@H](c5ccccc5)C4)ccc(C)c3n2)oc2ccccc12.[Na+]` [Compound 300] as the molecule, how does the Activity read?
A: ++ (activity>50% of CFTR amplifier+VX-809 (3 uM) with compound at 10 uM and Compound A at 3 uM)

Q: Which Activity does the source give for `Cc1c(-c2cc(C(=O)[O-])c3c(O[C@@H]4CCC[C@@H](c5ccccc5)C4)ccc(C)c3n2)oc2ccccc12.[Na+]` [Compound 301] here?
A: ++ (activity>50% of CFTR amplifier+VX-809 (3 uM) with compound at 10 uM and Compound A at 3 uM)

Q: For `Cc1c(-c2cc(C(=O)[O-])c3c(O[C@H]4CCC[C@H](c5ccccc5)C4)ccc(C)c3n2)oc2ccccc12.[Na+]` [Compound 302], which Activity is on record?
A: ++ (activity>50% of CFTR amplifier+VX-809 (3 uM) with compound at 10 uM and Compound A at 3 uM)

Q: For `Cc1ccccc1COc1ccc(C)c2nc(-c3sc4ccccc4c3C)cc(C(=O)[O-])c12.[Na+]` [Compound 303], which Activity is on record?
A: ++ (activity>50% of CFTR amplifier+VX-809 (3 uM) with compound at 10 uM and Compound A at 3 uM)

Q: `Cc1cccc(COc2ccc(C)c3nc(-c4sc5ccccc5c4C)cc(C(=O)[O-])c23)c1.[Na+]` [Compound 304] was tested. Which Activity did it give?
A: ++ (activity>50% of CFTR amplifier+VX-809 (3 uM) with compound at 10 uM and Compound A at 3 uM)

Q: Which Activity does the source give for `Cc1cccc(C)c1COc1ccc(C)c2nc(-c3sc4ccccc4c3C)cc(C(=O)[O-])c12.[Na+]` [Compound 305] here?
A: ++ (activity>50% of CFTR amplifier+VX-809 (3 uM) with compound at 10 uM and Compound A at 3 uM)

Q: With `Cc1c(-c2cc(C(=O)[O-])c3c(O[C@@H](CO)c4ccccc4)ccc(C)c3n2)sc2ccccc12.[Na+]` [Compound 306] as the molecule, how does the Activity read?
A: ++ (activity>50% of CFTR amplifier+VX-809 (3 uM) with compound at 10 uM and Compound A at 3 uM)

Q: For `Cc1c(-c2cc(C(=O)[O-])c3c(O[C@H](CO)c4ccccc4)ccc(C)c3n2)sc2ccccc12.[Na+]` [Compound 307], which Activity is on record?
A: ++ (activity>50% of CFTR amplifier+VX-809 (3 uM) with compound at 10 uM and Compound A at 3 uM)

Q: `COC[C@H](Oc1ccc(C)c2nc(-c3sc4ccccc4c3C)cc(C(=O)[O-])c12)c1ccccc1.[Na+]` [Compound 308] was tested. Which Activity did it give?
A: ++ (activity>50% of CFTR amplifier+VX-809 (3 uM) with compound at 10 uM and Compound A at 3 uM)

Q: For `COC[C@@H](Oc1ccc(C)c2nc(-c3sc4ccccc4c3C)cc(C(=O)[O-])c12)c1ccccc1.[Na+]` [Compound 309], which Activity is on record?
A: ++ (activity>50% of CFTR amplifier+VX-809 (3 uM) with compound at 10 uM and Compound A at 3 uM)

Q: How did the Activity turn out when `Cc1c(-c2cc(C(=O)[O-])c3c(O[C@@H](CCO)c4ccccc4)ccc(C)c3n2)sc2ccccc12.[Na+]` [Compound 310] was run?
A: ++ (activity>50% of CFTR amplifier+VX-809 (3 uM) with compound at 10 uM and Compound A at 3 uM)

Q: With `Cc1c(-c2cc(C(=O)[O-])c3c(O[C@H](CCO)c4ccccc4)ccc(C)c3n2)sc2ccccc12.[Na+]` [Compound 311] as the molecule, how does the Activity read?
A: ++ (activity>50% of CFTR amplifier+VX-809 (3 uM) with compound at 10 uM and Compound A at 3 uM)

Q: For `COCC[C@H](Oc1ccc(C)c2nc(-c3sc4ccccc4c3C)cc(C(=O)[O-])c12)c1ccccc1.[Na+]` [Compound 312], which Activity is on record?
A: ++ (activity>50% of CFTR amplifier+VX-809 (3 uM) with compound at 10 uM and Compound A at 3 uM)

Q: With `COCC[C@@H](Oc1ccc(C)c2nc(-c3sc4ccccc4c3C)cc(C(=O)[O-])c12)c1ccccc1.[Na+]` [Compound 313] as the molecule, how does the Activity read?
A: ++ (activity>50% of CFTR amplifier+VX-809 (3 uM) with compound at 10 uM and Compound A at 3 uM)

Q: `Cc1c(-c2cc(C(=O)[O-])c3c(O[C@H]4C[C@H](C)C[C@H](C)C4)ccc(C)c3n2)sc2ccccc12.[Na+]` [Compound 314] was tested. Which Activity did it give?
A: ++ (activity>50% of CFTR amplifier+VX-809 (3 uM) with compound at 10 uM and Compound A at 3 uM)

Q: How did the Activity turn out when `Cc1c(-c2cc(C(=O)[O-])c3c(O[C@@H]4C[C@H](C)C[C@H](C)C4)ccc(C)c3n2)sc2ccccc12.[Na+]` [Compound 315] was run?
A: ++ (activity>50% of CFTR amplifier+VX-809 (3 uM) with compound at 10 uM and Compound A at 3 uM)

Q: `Cc1c(-c2cc(C(=O)[O-])c3c(OC4CC(C)(C)C4)ccc(C)c3n2)sc2ccccc12.[Na+]` [Compound 318] was tested. Which Activity did it give?
A: ++ (activity>50% of CFTR amplifier+VX-809 (3 uM) with compound at 10 uM and Compound A at 3 uM)

Q: Which Activity does the source give for `Cc1c(-c2cc(C(=O)[O-])c3c(OCC4CCC4)ccc(C)c3n2)sc2ccccc12.[Na+]` [Compound 319] here?
A: ++ (activity>50% of CFTR amplifier+VX-809 (3 uM) with compound at 10 uM and Compound A at 3 uM)

Q: How did the Activity turn out when `Cc1c(-c2cc(C(=O)[O-])c3c(OC[C@H]4C[C@@](C)(O)C4)ccc(C)c3n2)sc2ccccc12.[Na+]` [Compound 320] was run?
A: ++ (activity>50% of CFTR amplifier+VX-809 (3 uM) with compound at 10 uM and Compound A at 3 uM)

Q: `Cc1c(-c2cc(C(=O)[O-])c3c(OC[C@H]4C[C@](C)(O)C4)ccc(C)c3n2)sc2ccccc12.[Na+]` [Compound 321] was tested. Which Activity did it give?
A: ++ (activity>50% of CFTR amplifier+VX-809 (3 uM) with compound at 10 uM and Compound A at 3 uM)

Q: With `Cc1c(-c2cc(C(=O)[O-])c3c(OC[C@H]4CC[C@@](C)(O)CC4)ccc(C)c3n2)sc2ccccc12.[Na+]` [Compound 322] as the molecule, how does the Activity read?
A: ++ (activity>50% of CFTR amplifier+VX-809 (3 uM) with compound at 10 uM and Compound A at 3 uM)

Q: Which Activity does the source give for `Cc1c(-c2cc(C(=O)[O-])c3c(OC[C@H]4CC[C@](C)(O)CC4)ccc(C)c3n2)sc2ccccc12.[Na+]` [Compound 323] here?
A: ++ (activity>50% of CFTR amplifier+VX-809 (3 uM) with compound at 10 uM and Compound A at 3 uM)

Q: Which Activity does the source give for `CO[C@]1(C)C[C@H](COc2ccc(C)c3nc(-c4sc5ccccc5c4C)cc(C(=O)[O-])c23)C1.[Na+]` [Compound 324] here?
A: ++ (activity>50% of CFTR amplifier+VX-809 (3 uM) with compound at 10 uM and Compound A at 3 uM)

Q: How did the Activity turn out when `CO[C@]1(C)C[C@@H](COc2ccc(C)c3nc(-c4sc5ccccc5c4C)cc(C(=O)[O-])c23)C1.[Na+]` [Compound 325] was run?
A: ++ (activity>50% of CFTR amplifier+VX-809 (3 uM) with compound at 10 uM and Compound A at 3 uM)

Q: How did the Activity turn out when `CO[C@]1(C)CC[C@H](COc2ccc(C)c3nc(-c4sc5ccccc5c4C)cc(C(=O)[O-])c23)CC1.[Na+]` [Compound 326] was run?
A: ++ (activity>50% of CFTR amplifier+VX-809 (3 uM) with compound at 10 uM and Compound A at 3 uM)

Q: `CO[C@]1(C)CC[C@@H](COc2ccc(C)c3nc(-c4sc5ccccc5c4C)cc(C(=O)[O-])c23)CC1.[Na+]` [Compound 327] was tested. Which Activity did it give?
A: ++ (activity>50% of CFTR amplifier+VX-809 (3 uM) with compound at 10 uM and Compound A at 3 uM)
